From patent US4539329A, “7'-Trifluoromethyl-spiro[imidazolidine-4,3'-indoline]-2,2',5-triones as aldose reductase inhibitors” (Imperial Chemical Industries, plc, priority 1982, dated 1985) come the findings set out here.

In this assay the target is T1, aldose reductase (Bos taurus, UniProt P16116).
T1 construct: purified aldose reductase is isolated in known manner from bovine lenses; from tissue; host or cells: bovine lens
The assay can be described thus: in vitro inhibition of purified aldose reductase from bovine lenses (reduction of glucose to sorbitol, spectrophotometric). The assay is classed as biochemical. As to conditions: aldose reductase preparation obtained from bovine lenses; read-out: concentration producing a 50% reduction in the conversion of glucose to sorbitol. How it is done:
Thus, purified aldose reductase is isolated in known manner from bovine lenses. The percentage inhibition of this enzyme's ability in vitro to reduce aldoses to polyhydric alcohols, and particularly to reduce glucose to sorbitol, caused by a test compound is then determined using standard spectrophotometric methods. In this test the compounds of formula I in general show significant inhibition of the enzyme aldose reductase at a concentration of about 10^-8 M.

Consider `O=C1NC(=O)C2(N1)C(=O)N(Cc1ccc(Br)cc1F)c1c(C(F)(F)F)cccc12` (racemic) [A, 1'-(4-bromo-2-fluorobenzyl)-7'-(trifluoromethyl)-spiro[imidazolidine-4,3'-indoline]-2,2',5-trione], for which the IC50 turned out to be 10.5 nM.
